Source: patent US20260001928A1 (CORTERIA PHARMACEUTICALS, priority 2022, published 2026)
pEC50: −log10 of the molar value. *1 amine or outer side, *2 acyl side, *3 side chain or, on linkers, in order; H or OH if unused. Where a SMILES comes first, the peptide text is derived from it. Side-chain parts run from the residue outwards. [ ]: non-standard residue; d: D form. The star is where a group is joined. C18 diacid = O=C(O)CCCCCCCCCCCCCCCCC(=O)*; γGlu = O=C(O)[C@H](CCC(=O)[*:2])N[*:1]; Api = NC1(C(=O)O)CCNCC1; AEEA = NCCOCCOCC(=O)O; Aib = CC(C)(N)C(=O)O

Columns and labels:
[1] = Chemical stability in buffer (pH 7.4 / pH 4.5), % purity loss; type: physicochemical; conditions: 40° C. vs 5° C., 14 or 28 days; for Buffer stability pH 4.5 % purity loss: 100 mM acetate buffer pH 4.5; for Buffer stability pH 7.4 % purity loss: 100 mM phosphate buffer pH 7.4
How it was run: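 Compounds dissolved at 10 mg/mL target in 100 mM phosphate (pH 7.4) or 100 mM acetate (pH 4.5) buffer for 1 h at room temperature, then centrifuged. Diluted supernatant stored at 5 °C or 40 °C for 14 or 28 days; % purity loss by LC-UV.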

[2] = Pharmacokinetics in male Sprague Dawley rats after subcutaneous administration; type: in vivo; conditions: plasma, rat, SC, 0.05 mg/kg
Method: The pharmacokinetics of UCN-2 derivatives was studied in male Sprague Dawley rats after subcutaneous administration (SC) at 0.05, 0.1, 0.3 or 1 mg/kg. Peptides were formulated as a solution in 10 mM phosphate pH 7.4 buffer+glycerol 85% (2.3% v/v)). […] The supernatant (200 μL) was analyzed by LC-MSMS. Pharmacokinetic parameters were calculated using established non-compartmental methods. The area under the plasma concentration curve versus time (AUC) was determined using Watson LIMS (version 7.6), with linear trapezoidal interpolation in the ascending slope and logarithmic trapezoidal interpolation in the descending slope. The portion of the AUC from the last measurable concentration to infinity was estimated from the equation, Ct/kel, where Ct represents the last measurable concentration and kel is the elimination rate constant. The latter was determined from the concentration curve versus time by linear regression at the terminal phase of the semi-logarithmic plot.

CFR1R receptor = target: T1, CFR1R receptor (Homo sapiens, UniProt P34998); test: Activity at anti-target CFR1R receptor, cAMP assay in CRF1R-overexpression CHO-K1 cells; type: cell-based; conditions: 100% = Sauvagine at 100 nM
T1 construct: host or cells: CHO-K1 (clone 2)
T1 sequence (P34998 24-415): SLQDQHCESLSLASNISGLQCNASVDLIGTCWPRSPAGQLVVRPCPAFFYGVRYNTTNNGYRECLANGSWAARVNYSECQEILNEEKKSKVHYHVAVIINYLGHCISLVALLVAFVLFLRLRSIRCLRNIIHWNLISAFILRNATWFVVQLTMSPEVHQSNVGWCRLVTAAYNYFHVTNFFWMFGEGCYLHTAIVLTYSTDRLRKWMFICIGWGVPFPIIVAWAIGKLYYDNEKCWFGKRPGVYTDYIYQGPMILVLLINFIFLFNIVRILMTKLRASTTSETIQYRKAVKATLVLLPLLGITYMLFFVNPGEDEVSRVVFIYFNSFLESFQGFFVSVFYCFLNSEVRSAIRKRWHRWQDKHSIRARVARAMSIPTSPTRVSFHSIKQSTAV
How it was run: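 Clone 2 cells were cultured in F12 (Hams)/10% FBS/400 μg/ml G418 at 37° C./5% CO2, frozen in medium with 10% DMSO, and thawed vials used. The protocol followed the TeloHAEC procedure, with 4000 cells/well final and Sauvagine at 100 nM defining 100% activation.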

human CRF2a receptor = target: T2, human CRF2a receptor (Homo sapiens, UniProt Q13324); test: Activity at human CRF2a receptor, cAMP functional assay in TeloHEAC cells; type: cell-based; conditions: TeloHEAC cells stably expressing human CRF2a receptor, relative to urocortin 2 (100 nM = 100%)
T2 construct: expressed in transfected cells; host or cells: TeloHEAC cells
T2 sequence (Q13324 1-411): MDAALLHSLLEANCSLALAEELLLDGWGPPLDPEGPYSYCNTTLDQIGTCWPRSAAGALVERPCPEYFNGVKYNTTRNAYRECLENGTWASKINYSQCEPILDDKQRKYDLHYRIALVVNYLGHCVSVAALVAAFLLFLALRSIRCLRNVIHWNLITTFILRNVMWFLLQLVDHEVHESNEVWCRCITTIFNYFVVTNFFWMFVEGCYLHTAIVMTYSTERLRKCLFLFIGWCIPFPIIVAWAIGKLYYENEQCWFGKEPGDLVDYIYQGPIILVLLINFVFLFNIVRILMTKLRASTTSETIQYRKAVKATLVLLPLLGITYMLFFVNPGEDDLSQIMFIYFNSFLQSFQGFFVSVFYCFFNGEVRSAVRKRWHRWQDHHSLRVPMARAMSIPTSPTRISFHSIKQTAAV
How it was run: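 cAMP accumulation was measured by HTRF 665/620 nm ratio after 30 min at 37° C compound exposure (16 twofold dilutions) of CRF2a-expressing TeloHEAC cells, 10000/well, in HEPES-buffered HBSS plus IBMX. Activity was normalised to urocortin 2 at 100 nM (100%), and EC50 was the concentration giving half-maximal activation.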

[3] = In vitro subcutaneous tissue supernatant (SCts) stability and metabolite identification, rat; type: in vitro ADME; design: remaining at 2 h: dose or concentration left out as unconfirmed; conditions: male, Sprague Dawley; rat subcutaneous tissue supernatant (SCts), 37° C, 2 h

| Buffer stability pH 4.5 % purity loss [1] | Buffer stability pH 7.4 % purity loss [1] | AUC(0-t) [2] [ng·h/mL] | Cmax [2] [ng/mL] | Tmax [2] [h] | half-life [2] [h] | Emax (% I) (CFR1R receptor) | pEC50 (CFR1R receptor; cAMP) | pEC50 (human CRF2a receptor) | remaining at 2 h [3] [%] | Structure (SMILES) |
| --- | --- | --- | --- | --- | --- | --- | --- | --- | --- | --- |
| 0.0/0.0 ^ % | 0.0/0.0 ^ % | 2710 | 159 | 5 | 5.8 | −2 | < 6.60 | 9.26 | 74 | CC[C@H](C)[C@H](NC(C)=O)C(=O)N[C@H](C(=O)N[C@@H](CC(C)C)C(=O)N[C@@H](CO)C(=O)N[C@@H](CC(C)C)C(=O)N[C@@H](CC(=O)O)C(=O)N[C@@H](C(=O)N1CCC[C@H]1C(=O)N[C@H](C(=O)N[C@@H](CCCCN)C(=O)N[C@@H](CC(C)C)C(=O)N[C@@H](CCCCNC(=O)COCCOCCNC(=O)COCCOCCNC(=O)CC[C@H](NC(=O)CCCCCCCCCCCCCCCCC(=O)O)C(=O)O)C(=O)N[C@@H](CCCCN)C(=O)N[C@H](C(=O)N[C@@H](CC(C)C)C(=O)N[C@@H](CC(C)C)C(=O)N[C@@H](CCC(=O)O)C(=O)N[C@@H](CCC(N)=O)C(=O)N[C@@H](CCC(=O)O)C(=O)N[C@@H](CCCCN)C(=O)N[C@@H](CCC(N)=O)C(=O)N[C@@H](CCCCN)C(=O)N[C@@H](CCCCN)C(=O)N[C@@H](CCC(N)=O)C(=O)N[C@@H](CCCNC(=N)N)C(=O)N[C@@H](CCC(=O)O)C(=O)N[C@@H](CCC(N)=O)C(=O)N[C@@H](C)C(=O)N[C@@H](CCC(=O)O)C(=O)N[C@H](C(=O)N[C@@H](CC(N)=O)C(=O)NC(C)(C)C(=O)N[C@@H](CCC(N)=O)C(=O)N[C@H](C(=O)N[C@@H](CC(C)C)C(=O)N[C@@H](C)C(=O)N[C@@H](CCC(N)=O)C(=O)N[C@H](C(N)=O)C(C)C)[C@@H](C)CC)[C@@H](C)O)[C@@H](C)CC)[C@@H](C)CC)C(C)C)C(C)C [compound 98] (Ac-IVLSLD[dV]PIKLK([AEEA-AEEA-γGlu-C18 diacid])KILLEQEKQKKQREQAETN[Aib]QILAQV-NH2) |
| 0.0/0.0 ^ % | 0.0/0.0 ^ % | 2100 | 137 | 7 | 9.7 | 37 | – | 9.59 | 82 | CC[C@H](C)[C@H](NC(C)=O)C(=O)N[C@H](C(=O)N[C@@H](CC(C)C)C(=O)N[C@@H](CO)C(=O)N[C@@H](CC(C)C)C(=O)N[C@@H](CC(=O)O)C(=O)N[C@@H](C(=O)N1CCC[C@H]1C(=O)N[C@H](C(=O)N[C@@H](CCCCN)C(=O)N[C@@H](CC(C)C)C(=O)N[C@@H](CCCCNC(=O)CC[C@H](NC(=O)CCCCCCCCCCCCCCCCC(=O)O)C(=O)O)C(=O)N[C@@H](CCCCN)C(=O)N[C@H](C(=O)N[C@@H](CC(C)C)C(=O)N[C@@H](CC(C)C)C(=O)N[C@@H](CCC(=O)O)C(=O)N[C@@H](CCC(N)=O)C(=O)N[C@@H](CCC(=O)O)C(=O)N[C@@H](CCCCN)C(=O)N[C@@H](CCC(N)=O)C(=O)N[C@@H](CCCCN)C(=O)N[C@@H](C)C(=O)N[C@@H](CCC(N)=O)C(=O)N[C@@H](CCCNC(=N)N)C(=O)N[C@@H](CCC(=O)O)C(=O)N[C@@H](CCC(N)=O)C(=O)N[C@@H](C)C(=O)N[C@@H](CCC(=O)O)C(=O)N[C@H](C(=O)N[C@@H](CC(N)=O)C(=O)NC1(C(=O)N[C@@H](CCC(N)=O)C(=O)N[C@H](C(=O)N[C@@H](CC(C)C)C(=O)N[C@@H](C)C(=O)N[C@@H](CCC(N)=O)C(=O)N[C@H](C(N)=O)C(C)C)[C@@H](C)CC)CCNCC1)[C@@H](C)O)[C@@H](C)CC)[C@@H](C)CC)C(C)C)C(C)C [compound 187] (Ac-IVLSLD[dV]PIKLK([γGlu-C18 diacid])KILLEQEKQKAQREQAETN[Api]QILAQV-NH2) |
